Test results reported in the NIST ThermoML archive (doi:10.1021/acs.jced.7b00201).

Assay: xn = mol fraction of the nth substance listed
Settings: 100 kPa, Liquid; for mass density: Vibrating tube method; for viscosity: Falling or rolling sphere viscometry

OCC1CC1 [cyclopropylmethanol] + CCCCCCCCCCCC
Settings | mass density [kg/m3] | viscosity [mPa·s]
318.15 K, x1 = 0.1135 | 736.06 | –
318.15 K, x1 = 0.2127 | 742.4 | –
318.15 K, x1 = 0.3059 | 749.51 | –
318.15 K, x1 = 0.3804 | 756.13 | –
318.15 K, x1 = 0.5067 | 769.82 | –
318.15 K, x1 = 0.6019 | 782.78 | –
318.15 K, x1 = 0.7011 | 799.61 | –
318.15 K, x1 = 0.7921 | 819.33 | –
318.15 K, x1 = 0.8991 | 850.32 | –
318.15 K, x1 = 1 | 892.38 | –
323.15 K, x1 = 0.1039 | – | 0.909
323.15 K, x1 = 0.1135 | 732.26 | –
323.15 K, x1 = 0.2032 | – | 0.927
323.15 K, x1 = 0.2127 | 738.54 | –
323.15 K, x1 = 0.3022 | – | 0.952
323.15 K, x1 = 0.3059 | 745.6 | –
323.15 K, x1 = 0.3804 | 752.18 | –
323.15 K, x1 = 0.3997 | – | 0.979
323.15 K, x1 = 0.4993 | – | 1.052
323.15 K, x1 = 0.5067 | 765.79 | –
323.15 K, x1 = 0.5994 | – | 1.125
323.15 K, x1 = 0.6019 | 778.71 | –
323.15 K, x1 = 0.7 | – | 1.22
323.15 K, x1 = 0.7011 | 795.48 | –
323.15 K, x1 = 0.7921 | 815.17 | –
323.15 K, x1 = 0.797 | – | 1.346
323.15 K, x1 = 0.8991 | 846.12 | –
323.15 K, x1 = 0.9004 | – | 1.546
323.15 K, x1 = 1 | 888.13 | 1.843
328.15 K, x1 = 0.1039 | – | 0.849
328.15 K, x1 = 0.1135 | 728.45 | –
328.15 K, x1 = 0.2032 | – | 0.864
328.15 K, x1 = 0.2127 | 734.66 | –
328.15 K, x1 = 0.3022 | – | 0.884
328.15 K, x1 = 0.3059 | 741.65 | –
328.15 K, x1 = 0.3804 | 748.19 | –
328.15 K, x1 = 0.3997 | – | 0.907
328.15 K, x1 = 0.4993 | – | 0.969
328.15 K, x1 = 0.5067 | 761.73 | –
328.15 K, x1 = 0.5994 | – | 1.031
328.15 K, x1 = 0.6019 | 774.6 | –
328.15 K, x1 = 0.7 | – | 1.112
328.15 K, x1 = 0.7011 | 791.32 | –
328.15 K, x1 = 0.7921 | 810.96 | –
328.15 K, x1 = 0.797 | – | 1.221
328.15 K, x1 = 0.8991 | 841.86 | –
328.15 K, x1 = 0.9004 | – | 1.391
328.15 K, x1 = 1 | 883.84 | 1.646
333.15 K, x1 = 0.1039 | – | 0.794
333.15 K, x1 = 0.1135 | 724.62 | –
333.15 K, x1 = 0.2032 | – | 0.806
333.15 K, x1 = 0.2127 | 730.75 | –
333.15 K, x1 = 0.3022 | – | 0.823
333.15 K, x1 = 0.3059 | 737.68 | –
333.15 K, x1 = 0.3804 | 744.17 | –
333.15 K, x1 = 0.3997 | – | 0.843
333.15 K, x1 = 0.4993 | – | 0.896
333.15 K, x1 = 0.5067 | 757.64 | –
333.15 K, x1 = 0.5994 | – | 0.948
333.15 K, x1 = 0.6019 | 770.44 | –
333.15 K, x1 = 0.7 | – | 1.018
333.15 K, x1 = 0.7011 | 787.11 | –
333.15 K, x1 = 0.7921 | 806.7 | –
333.15 K, x1 = 0.797 | – | 1.111
333.15 K, x1 = 0.8991 | 837.56 | –
333.15 K, x1 = 0.9004 | – | 1.257
333.15 K, x1 = 1 | 879.49 | 1.476
338.15 K, x1 = 0.1039 | – | 0.745
338.15 K, x1 = 0.1135 | 720.77 | –
338.15 K, x1 = 0.2032 | – | 0.755
338.15 K, x1 = 0.2127 | 726.81 | –
338.15 K, x1 = 0.3022 | – | 0.769
338.15 K, x1 = 0.3059 | 733.68 | –
338.15 K, x1 = 0.3804 | 740.12 | –
338.15 K, x1 = 0.3997 | – | 0.785
338.15 K, x1 = 0.4993 | – | 0.831
338.15 K, x1 = 0.5067 | 753.5 | –
338.15 K, x1 = 0.5994 | – | 0.875
338.15 K, x1 = 0.6019 | 766.25 | –
338.15 K, x1 = 0.7 | – | 0.935
338.15 K, x1 = 0.7011 | 782.85 | –
338.15 K, x1 = 0.7921 | 802.39 | –
338.15 K, x1 = 0.797 | – | 1.015
338.15 K, x1 = 0.8991 | 833.19 | –
338.15 K, x1 = 0.9004 | – | 1.141
338.15 K, x1 = 1 | 875.07 | 1.328
343.15 K, x1 = 0.1039 | – | 0.702
343.15 K, x1 = 0.1135 | 716.91 | –
343.15 K, x1 = 0.2032 | – | 0.709
343.15 K, x1 = 0.2127 | 722.85 | –
343.15 K, x1 = 0.3022 | – | 0.721
343.15 K, x1 = 0.3059 | 729.64 | –
343.15 K, x1 = 0.3804 | 736.03 | –
343.15 K, x1 = 0.3997 | – | 0.734
343.15 K, x1 = 0.4993 | – | 0.773
343.15 K, x1 = 0.5067 | 749.32 | –
343.15 K, x1 = 0.5994 | – | 0.811
343.15 K, x1 = 0.6019 | 762 | –
343.15 K, x1 = 0.7 | – | 0.862
343.15 K, x1 = 0.7011 | 778.54 | –
343.15 K, x1 = 0.7921 | 798.03 | –
343.15 K, x1 = 0.797 | – | 0.931
343.15 K, x1 = 0.8991 | 828.77 | –
343.15 K, x1 = 0.9004 | – | 1.039
343.15 K, x1 = 1 | 870.62 | 1.201
